According to US12448400B2, “KRAS G12D modulating compounds” (priority 2023, dated 2025):
Read-outs that look alike come from different tables or passages of the source.

How the values were obtained:
GDP-loaded KRAS G12D = GDP-loaded KRAS G12D (Homo sapiens, UniProt P01116, G12D); experiment: KRAS G12D (GDP) biochemical assay, TR-FRET probe displacement; format: binding
Experimental: Example A. KRAS G12D (GDP) Biochemical Assay
Compounds were tested for binding to GDP-loaded KRAS G12D in a 384-well assay format using a TR-FRET probe displacement assay in buffer consisting of 50 mM Hepes (pH 7.4), 150 mM NaCl, 5 mM MgCl2 and 0.005% Tween-20. […] Compounds were serially diluted (1:3) in DMSO. The LabCyte ECHO Acoustic dispenser system was used to pre-spot the assay plates (384-well Non-Binding Surface plates, Corning, Catalog #3824) with 50 nL of compound. The compounds were pre-incubated with 5 μL of 2× final enzyme concentration for 30 minutes before adding 5 μL of 2× final concentration of Eu-streptavidin and TR-FRET probe (10 μL final reaction volume). The plates were incubated at room temperature for 2 hours before measuring TR-FRET ratio on the Envision plate reader. IC50 values were defined as the compound concentration that causes a 50% decrease in TR-FRET ratio and were calculated using a sigmoidal dose-response model to generate curve fits.

GP2D (KRAS G12D) cells = experiment: 2D cell viability assay (CellTiter-Glo); format: cell-based; conditions: 96 h
Experimental: Example B. 2D Cell Viability Assay
Compounds were tested in a 384-well format for their ability to inhibit the viability of GP2D (KRAS G12D) cells in 2D assays. Compounds were serially diluted (1:3) in DMSO. The LabCyte ECHO Acoustic dispenser system was used to pre-spot assay plates with 200 nL of test molecule per well. 1000 cells/well (40 μL volume per well) in RPMI medium with 10% FBS, and Penicillin-Streptomycin-Glutamine were plated in pre-spotted 384-well plates (Greiner, Catalog #781076) on the BioTEK EL406 liquid dispenser with a 5 μL dispensing cassette (BioTek 7170011). The plates were incubated at 37° C., 5% CO2 for 4 days before addition of CellTiter-Glo (CTG) reagent and measurement of luminescence signal. EC50 values were defined as the compound concentration that causes a 50% decrease in luminescence signal and were calculated using a sigmoidal dose-response model to generate curve fits.

[1] = 0.5 nM enzyme, 30 min pre-incubation, 2 h incubation, TR-FRET ratio, read-out: G12D IC50
[2] = GP2D cells, 4 days, CellTiter-Glo luminescence, read-out: G12D 2D EC50

Chain of GDP-loaded KRAS G12D (P01116 1-188 isoform P01116-2 G12D): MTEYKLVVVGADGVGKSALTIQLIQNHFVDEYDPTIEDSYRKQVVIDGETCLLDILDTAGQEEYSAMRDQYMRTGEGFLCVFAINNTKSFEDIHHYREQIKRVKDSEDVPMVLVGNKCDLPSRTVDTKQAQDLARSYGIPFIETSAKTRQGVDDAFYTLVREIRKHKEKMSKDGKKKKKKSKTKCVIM

## C#Cc1c(F)ccc2cc(O)cc(-c3c(F)c4c5c(nc(OC[C@@]67CCCN6C[C@H](F)C7)nc5c3F)N3C[C@H]5CC[C@H](N5)[C@H]3CCC4)c12 (atropisomer, axis not shown; (aR)) [Example 28-P, (R)-4-((1S,4R,15aR)-10,12-difluoro-8-(((2R,7aS)-2-fluorotetrahydro-1H-pyrrolizin-7a(5H)-yl)methoxy)-2,3,4,5,13,14,15,15a-octahydro-1H-1,4-epiminoazepino[1′,2′:1,8]azocino[2,3,4-de]quinazolin-11-yl)-5-ethynyl-6-fluoronaphthalen-2-ol]
GDP-loaded KRAS G12D; [1]
  IC50: 0.07 nM
GP2D (KRAS G12D) cells; [2]
  EC50: 0.13 nM

## C#Cc1c(F)ccc2cc(O)cc(-c3c(F)c4c5c(nc(OC[C@]6(C)CN(C)CC[C@@H]6C(F)F)nc5c3F)N3C[C@H]5CC[C@H](N5)[C@H]3CCC4)c12 (atropisomer, axis not shown; (aR)) [Example 78-P, (R)-4-((1S,4R,15aR)-8-(((3S,4S)-4-(difluoromethyl)-1,3-dimethylpiperidin-3-yl)methoxy)-10,12-difluoro-2,3,4,5,13,14,15,15a-octahydro-1H-1,4-epiminoazepino[1′,2′:1,8]azocino[2,3,4-de]quinazolin-11-yl)-5-ethynyl-6-fluoronaphthalen-2-ol]
GDP-loaded KRAS G12D; [1]
  IC50: 0.04 nM
GP2D (KRAS G12D) cells; [2]
  EC50: 0.14 nM

## C#Cc1c(F)ccc2cc(OCc3oc(=O)oc3C)cc(-c3nc4c5c(nc(OC[C@@]67CCCN6C[C@H](F)C7)nc5c3F)N3C[C@H]5CC[C@@H]([C@@H]3[C@@H](C)C4)N5Cc3oc(=O)oc3C)c12 [Example 2, 4-(((5-ethynyl-6-fluoro-4-((5S,5aS,6S,9R)-1-fluoro-12-(((2R,7aS)-2-fluorotetrahydro-1H-pyrrolizin-7a(5H)-yl)methoxy)-5-methyl-14-((5-methyl-2-oxo-1,3-dioxol-4-yl)methyl)-4,5,5a,6,7,8,9,10-octahydro-3,10a,11,13,14-pentaaza-6,9-methanonaphtho[1,8-ab]heptalen-2-yl)naphthalen-2-yl)oxy)methyl)-5-methyl-1,3-dioxol-2-one]
GDP-loaded KRAS G12D; [1]
  IC50: 40 nM
GP2D (KRAS G12D) cells; [2]
  EC50: 0.24 nM

## C#Cc1c(F)ccc2cccc(-c3nc4c5c(nc(OC[C@@]67CCCN6C[C@H](F)C7)nc5c3F)N3C[C@H]5CC[C@@H]([C@H]3CCC4)N5Cc3oc(=O)oc3-c3ccccc3)c12 [Example 4, 4-(((6aR,7S,10R)-2-(8-ethynyl-7-fluoronaphthalen-1-yl)-1-fluoro-13-(((2R,7aS)-2-fluorotetrahydro-1H-pyrrolizin-7a(5H)-yl)methoxy)-5,6,6a,7,8,9,10,11-octahydro-4H-3,11a,12,14,15-pentaaza-7,10-methanocyclohepta[4,5]cycloocta[1,2,3-de]naphthalen-15-yl)methyl)-5-phenyl-1,3-dioxol-2-one]
GDP-loaded KRAS G12D; [1]
  IC50: 3.3 nM
GP2D (KRAS G12D) cells; [2]
  EC50: 2.3 nM

## C#Cc1c(F)ccc2cccc(-c3nc4c5c(nc(OC[C@@]67CCCN6C[C@H](F)C7)nc5c3F)N3C[C@H]5CC[C@@H]([C@H]3CCC4)N5Cc3c(C)oc(=O)n3C)c12 [Example 5, 4-(((6aR,7S,10R)-2-(8-ethynyl-7-fluoronaphthalen-1-yl)-1-fluoro-13-(((2R,7aS)-2-fluorotetrahydro-1H-pyrrolizin-7a(5H)-yl)methoxy)-5,6,6a,7,8,9,10,11-octahydro-4H-3,11a,12,14,15-pentaaza-7,10-methanocyclohepta[4,5]cycloocta[1,2,3-de]naphthalen-15-yl)methyl)-3,5-dimethyloxazol-2(3H)-one]
GDP-loaded KRAS G12D; [1]
  IC50: 4.7 nM
GP2D (KRAS G12D) cells; [2]
  EC50: 78 nM

## C#Cc1c(F)ccc2cccc(-c3nc4c5c(nc(OC[C@@]67CCCN6C[C@H](F)C7)nc5c3F)N3C[C@H]5CC[C@@H]([C@H]3CCC4)N5Cc3oc(=O)oc3C(C)(C)C)c12 [Example 6, 4-(tert-butyl)-5-(((6aR,7S,10R)-2-(8-ethynyl-7-fluoronaphthalen-1-yl)-1-fluoro-13-(((2R,7aS)-2-fluorotetrahydro-1H-pyrrolizin-7a(5H)-yl)methoxy)-5,6,6a,7,8,9,10,11-octahydro-4H-3,11a,12,14,15-pentaaza-7,10-methanocyclohepta[4,5]cycloocta[1,2,3-de]naphthalen-15-yl)methyl)-1,3-dioxol-2-one]
GDP-loaded KRAS G12D; [1]
  IC50: 31 nM
GP2D (KRAS G12D) cells; [2]
  EC50: 26 nM

## C#Cc1c(F)ccc2cc(O)cc(-c3nc4c5c(nc(OC[C@@]67CCCN6C[C@H](F)C7)nc5c3F)N3C[C@H]5CC[C@@H]([C@@H]3[C@@H](C)C4)N5Cc3oc(=O)oc3C)c12 [Example 7, 4-(((5S,5aS,6S,9R)-2-(8-ethynyl-7-fluoro-3-hydroxynaphthalen-1-yl)-1-fluoro-12-(((2R,7aS)-2-fluorotetrahydro-1H-pyrrolizin-7a(5H)-yl)methoxy)-5-methyl-4,5,5a,6,7,8,9,10-octahydro-3,10a,11,13,14-pentaaza-6,9-methanonaphtho[1,8-ab]heptalen-14-yl)methyl)-5-methyl-1,3-dioxol-2-one]
GDP-loaded KRAS G12D; [1]
  IC50: 2.8 nM
GP2D (KRAS G12D) cells; [2]
  EC50: 0.18 nM

## Oc1cc(-c2nc3c4c(nc(OC[C@@]56CCCN5C[C@H](F)C6)nc4c2F)N2C[C@H]4CC[C@H](N4)[C@H]2CCC3)c2c(OC(F)(F)F)c(F)ccc2c1 [Example 18-P, 6-fluoro-4-((6aR,7S,10R)-1-fluoro-13-(((2R,7aS)-2-fluorotetrahydro-1H-pyrrolizin-7a(5H)-yl)methoxy)-5,6,6a,7,8,9,10,11-octahydro-4H-3,11a,12,14,15-pentaaza-7,10-methanocyclohepta[4,5]cycloocta[1,2,3-de]naphthalen-2-yl)-5-(trifluoromethoxy)naphthalen-2-ol]
GDP-loaded KRAS G12D; [1]
  IC50: 0.06 nM
GP2D (KRAS G12D) cells; [2]
  EC50: 0.24 nM

## C#Cc1c(F)ccc2cc(O)cc(-c3c(F)c4c5c(nc(OC[C@@]67CCCN6C[C@H](F)C7)nc5c3F)N3C[C@H]5CC[C@H](N5)[C@H]3CC4)c12 [Example 37-P, 4-((1S,4R,11R,14aR)-10,12-difluoro-8-(((2R,7aS)-2-fluorotetrahydro-1H-pyrrolizin-7a(5H)-yl)methoxy)-1,2,3,4,5,13,14,14a-octahydro-1,4-epiminoazepino[1′,2′:1,7]azepino[2,3,4-de]quinazolin-11-yl)-5-ethynyl-6-fluoronaphthalen-2-ol]
GDP-loaded KRAS G12D; [1]
  IC50: 0.07 nM
GP2D (KRAS G12D) cells; [2]
  EC50: 0.26 nM

## C#Cc1c(F)ccc2cc(O)cc(-c3nc4c5c(nc(OC[C@@]67CCCN6C[C@H](F)C7)nc5c3F)N3C[C@H]5CC[C@H](N5)[C@@H]3[C@H]3CCC[C@@H]43)c12 [Example 42-P, 5-ethynyl-6-fluoro-4-((3aS,3bS,4S,7R,14bR)-12-fluoro-10-(((2R,7aS)-2-fluorotetrahydro-1H-pyrrolizin-7a(5H)-yl)methoxy)-2,3,3a,3b,4,5,6,7,8,14b-decahydro-1H-8a,9,11,14,15-pentaaza-4,7-methanocyclopenta[d]naphtho[1,8-ab]heptalen-13-yl)naphthalen-2-ol]
GDP-loaded KRAS G12D; [1]
  IC50: 0.15 nM
GP2D (KRAS G12D) cells; [2]
  EC50: 1.7 nM

## C#Cc1c(F)ccc2cc(OC(=O)N(C)C)cc(-c3nc4c5c(nc(OC[C@@]67CCCN6C[C@H](F)C7)nc5c3F)N3C[C@H]5CC[C@@H]([C@@H]3[C@@H](C)C4)N5Cc3oc(=O)oc3C)c12 [Example 51, 5-ethynyl-6-fluoro-4-((5S,5aS,6S,9R)-1-fluoro-12-(((2R,7aS)-2-fluorotetrahydro-1H-pyrrolizin-7a(5H)-yl)methoxy)-5-methyl-14-((5-methyl-2-oxo-1,3-dioxol-4-yl)methyl)-4,5,5a,6,7,8,9,10-octahydro-3,10a,11,13,14-pentaaza-6,9-methanonaphtho[1,8-ab]heptalen-2-yl)naphthalen-2-yl dimethylcarbamate]
GDP-loaded KRAS G12D
  IC50: > 100 nM
GP2D (KRAS G12D) cells; GP2d, read-out: G12D 2D EC50 (nM)
  EC50: 34 nM

## C#Cc1c(F)ccc2cc(O)cc(-c3nc4c5c(nc(OC[C@]6(C)CN(C)CC[C@@H]6C(F)F)nc5c3F)N3C[C@H]5CC[C@H](N5)[C@H]3CCC4)c12 [Example 74-P, 4-((6aR,7S,10R)-13-(((3S,4S)-4-(difluoromethyl)-1,3-dimethylpiperidin-3-yl)methoxy)-1-fluoro-5,6,6a,7,8,9,10,11-octahydro-4H-3,11a,12,14,15-pentaaza-7,10-methanocyclohepta[4,5]cycloocta[1,2,3-de]naphthalen-2-yl)-5-ethynyl-6-fluoronaphthalen-2-ol]
GDP-loaded KRAS G12D; [1]
  IC50: 0.03 nM
GP2D (KRAS G12D) cells; [2]
  EC50: 0.15 nM

## [2H]C([2H])([2H])N1CC[C@H](C(F)F)[C@](C)(C([2H])([2H])Oc2nc3c4c(nc(-c5cc(O)cc6ccc(F)c(C#C)c56)c(F)c4n2)CCC[C@@H]2[C@@H]4CC[C@H](CN32)N4)C1 [Example 75-P, 4-((6aR,7S,10R)-13-(((3S,4S)-4-(difluoromethyl)-3-methyl-1-(methyl-d3)piperidin-3-yl)methoxy-d2)-1-fluoro-5,6,6a,7,8,9,10,11-octahydro-4H-3,11a,12,14,15-pentaaza-7,10-methanocyclohepta[4,5]cycloocta[1,2,3-de]naphthalen-2-yl)-5-ethynyl-6-fluoronaphthalen-2-ol]
GDP-loaded KRAS G12D; [1]
  IC50: 0.03 nM
GP2D (KRAS G12D) cells; [2]
  EC50: 0.1 nM
